This is an account of results in patent US20070021419A1, “2-Aminophenyl-4-phenylpyrimidines as kinase inhibitors” (Cyclacel Limited, priority 2003, published 2007).

One assay has as its system Saos-2. In words: 72-h MTT cytotoxicity assay, Saos-2. In kind it is cell-based. The conditions noted are these: Homo sapiens, read-out: 72-h MTT IC50 Saos-2, Saos-2 cell line. On the procedure:
(§1) The compounds from the examples above were subjected to a standard cellular proliferation assay using human tumour cell lines obtained from the ATCC (American Type Culture Collection, 10801 University Boulevard, Manessas, Va. 20110-2209, USA). Standard 72-h MTT (thiazolyl blue; 3-[4,5-dimethylthiazol-2-yl]-2,5-diphenyltetrazolium bromide) assays were performed. In short: cells were seeded into 96-well plates according to doubling time and incubated overnight at 37° C. Test compounds were made up in DMSO and a 1/3 dilution series prepared in 100 μL cell media, added to cells (in triplicates) and incubated for 72 ho at 37° C. MTT was made up as a stock of 5 mg/mL in cell media and filter-sterilised. Media was removed from cells followed by a wash with 200 μL PBS. MTT solution was then added at 20 μL per well and incubated in the dark at 37° C. for 4 h. MTT solution was removed and cells again washed with 200 μL PBS. MTT dye was solubilised with 200 μL per well of DMSO with agitation.

The next assay concerns HT29. As to the kind of experiment: 72-h MTT cytotoxicity assay, HT29. Type of assay: cell-based. The conditions noted are these: Homo sapiens, HT-29, read-out: 72-h MTT IC50 HT29, HT29 cell line. The method, then:
as §1

For the next assay, the target named is CDK2/cyclin E (Homo sapiens, UniProt P24941). In words: Kinase assay, radioactive phosphate incorporation, CDK2/cyclin E. In kind it is biochemical. Conditions: 100 μM ATP, 30° C.; read-out: Kinase inhibition IC50 CDK2/cyclin E. On the procedure: (§2) The compounds from the examples above were investigated for their ability to inhibit the enzymatic activity of various protein kinases. This was achieved by measurement of incorporation of radioactive phosphate from ATP into appropriate polypeptide substrates. Recombinant protein kinases and kinase complexes were produced or obtained commercially. Assays were performed using 96-well plates and appropriate assay buffers (typically 25 mM β-glycerophosphate, 20 mM MOPS, 5 MM EGTA, 1 mM DTT, 1 mM Na3VO3, pH 7.4), into which were added 2-4 μg of active enzyme with appropriate substrates. The reactions were initiated by addition of Mg/ATP mix (15 mM MgCl2+100 μM ATP with 30-50 kBq per well of [γ-^32P]-ATP) and mixtures incubated as required at 30° C. Reactions were stopped on ice, followed by filtration through p81 filterplates or GF/C filterplates (Whatman Polyfiltronics, Kent, UK). After washing 3 times with 75 mM aq orthophosphoric acid, plates were dried, scintillant added and incorporated radioactivity measured in a scintillation counter (TopCount, Packard Instruments, Pangbourne, Berks, UK). Compounds for kinase assay were made up as 10 mM stocks in DMSO and diluted into 10% DMSO in assay buffer.

For assay [1], the system named is transformed human cell lines (A549, HT29, Saos-2). As to the kind of experiment: 72-h MTT cytotoxicity assay, average of cell lines. Type of assay: cell-based. Conditions: read-out: 72-h MTT IC50 Average, average of A549, HT29, Saos-2. On the procedure:
as §1
(Tetrazolium assays rely on reduction of a dye to a coloured formazan, in cell work by metabolically active cells.)

The subject of another assay is A549. In words: 72-h MTT cytotoxicity assay, A549. Type of assay: cell-based. The conditions noted are these: Homo sapiens, read-out: 72-h MTT IC50 A549, A549 cell line. The method, then:
as §1

The next assay has as its target CDK9/cyclin T1 (Homo sapiens, UniProt P50750). As to the kind of experiment: Kinase assay, radioactive phosphate incorporation, CDK9/cyclin T1. In kind it is biochemical. The conditions noted are these: 100 μM ATP, 30° C.; read-out: Kinase inhibition IC50 CDK9/cyclin T1. On the procedure:
as §2

A further assay has as its target CDK7/cyclin H (Homo sapiens, UniProt P50613). As to the kind of experiment: Kinase assay, radioactive phosphate incorporation, CDK7/cyclin H. In kind it is biochemical. Conditions: 100 μM ATP, 30° C.; read-out: Kinase inhibition IC50 CDK7/cyclin H. On the procedure: as §2
A further assay addresses GSK3β (Homo sapiens, UniProt P49841). As to the kind of experiment: Kinase assay, radioactive phosphate incorporation, GSK3β. In kind it is biochemical. Conditions: 100 μM ATP, 30° C.; read-out: Kinase inhibition IC50 GSK3β. On the procedure:
as §2

Chain of CDK9/cyclin T1 (P50750 whole entry, species assumed): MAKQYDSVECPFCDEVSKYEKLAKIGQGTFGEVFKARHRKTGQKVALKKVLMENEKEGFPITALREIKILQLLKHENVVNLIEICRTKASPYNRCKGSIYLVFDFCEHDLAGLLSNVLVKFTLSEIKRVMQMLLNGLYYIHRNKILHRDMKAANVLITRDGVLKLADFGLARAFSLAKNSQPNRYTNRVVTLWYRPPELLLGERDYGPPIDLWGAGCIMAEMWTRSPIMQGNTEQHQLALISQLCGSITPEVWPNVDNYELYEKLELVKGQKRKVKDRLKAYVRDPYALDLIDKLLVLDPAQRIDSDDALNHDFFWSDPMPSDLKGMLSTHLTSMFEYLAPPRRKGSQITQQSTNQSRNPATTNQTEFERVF
Chain of CDK9/cyclin T1 (O60563 whole entry partner, species assumed): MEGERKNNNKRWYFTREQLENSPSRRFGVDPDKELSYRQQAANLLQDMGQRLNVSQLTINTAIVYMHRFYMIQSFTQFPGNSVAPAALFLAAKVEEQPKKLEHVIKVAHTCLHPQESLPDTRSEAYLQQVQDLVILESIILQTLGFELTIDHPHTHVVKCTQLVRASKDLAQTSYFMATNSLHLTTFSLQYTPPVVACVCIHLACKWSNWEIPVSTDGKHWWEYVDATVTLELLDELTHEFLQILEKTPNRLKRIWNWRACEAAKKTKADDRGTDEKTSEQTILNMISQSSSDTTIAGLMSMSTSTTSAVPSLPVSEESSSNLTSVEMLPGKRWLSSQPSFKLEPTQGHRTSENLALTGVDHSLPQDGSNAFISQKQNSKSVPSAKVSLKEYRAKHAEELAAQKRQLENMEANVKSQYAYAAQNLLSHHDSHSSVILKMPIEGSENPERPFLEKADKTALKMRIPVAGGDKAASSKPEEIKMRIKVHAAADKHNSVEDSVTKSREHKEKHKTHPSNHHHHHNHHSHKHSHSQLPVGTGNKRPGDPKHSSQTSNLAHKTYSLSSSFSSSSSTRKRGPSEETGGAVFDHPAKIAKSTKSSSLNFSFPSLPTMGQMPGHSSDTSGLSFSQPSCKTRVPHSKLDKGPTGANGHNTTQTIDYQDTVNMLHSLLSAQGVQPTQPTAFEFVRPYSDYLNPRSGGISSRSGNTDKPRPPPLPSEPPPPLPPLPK
Chain of CDK7/cyclin H (P50613 whole entry, species assumed): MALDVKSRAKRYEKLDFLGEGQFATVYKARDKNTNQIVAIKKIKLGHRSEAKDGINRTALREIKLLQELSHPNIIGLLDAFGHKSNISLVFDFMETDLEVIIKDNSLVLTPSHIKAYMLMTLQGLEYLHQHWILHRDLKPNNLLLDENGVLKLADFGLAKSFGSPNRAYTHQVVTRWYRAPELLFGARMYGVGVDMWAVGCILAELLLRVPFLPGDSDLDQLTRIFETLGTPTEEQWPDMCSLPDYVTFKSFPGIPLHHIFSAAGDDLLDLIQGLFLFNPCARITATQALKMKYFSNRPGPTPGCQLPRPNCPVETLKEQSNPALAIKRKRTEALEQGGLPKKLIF
Chain of CDK7/cyclin H (P51946 whole entry partner, species assumed): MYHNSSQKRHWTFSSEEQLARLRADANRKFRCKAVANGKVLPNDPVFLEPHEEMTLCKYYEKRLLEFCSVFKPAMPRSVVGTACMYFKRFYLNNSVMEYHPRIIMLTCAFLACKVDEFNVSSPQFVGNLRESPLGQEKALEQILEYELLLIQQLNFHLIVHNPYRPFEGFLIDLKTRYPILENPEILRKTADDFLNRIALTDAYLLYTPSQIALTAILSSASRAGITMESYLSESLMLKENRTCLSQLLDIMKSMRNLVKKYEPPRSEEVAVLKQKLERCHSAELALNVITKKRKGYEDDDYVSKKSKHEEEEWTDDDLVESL
Chain of GSK3β (P49841 whole entry, species assumed): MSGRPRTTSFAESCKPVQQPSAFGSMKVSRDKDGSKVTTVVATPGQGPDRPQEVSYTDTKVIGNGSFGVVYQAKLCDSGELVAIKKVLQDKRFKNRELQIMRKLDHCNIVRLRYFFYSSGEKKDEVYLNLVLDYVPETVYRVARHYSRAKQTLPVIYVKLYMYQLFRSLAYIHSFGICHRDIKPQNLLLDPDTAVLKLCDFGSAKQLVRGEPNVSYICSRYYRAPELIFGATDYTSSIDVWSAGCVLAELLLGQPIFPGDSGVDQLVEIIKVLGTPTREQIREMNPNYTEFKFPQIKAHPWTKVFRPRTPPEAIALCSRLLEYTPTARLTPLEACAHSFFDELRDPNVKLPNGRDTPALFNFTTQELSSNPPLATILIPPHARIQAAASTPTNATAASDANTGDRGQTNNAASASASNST

On to `O=[N+]([O-])c1cccc(-c2ccnc(Nc3ccc(O)cc3)n2)c1` [Compound 1, 4-[4-(3-Nitro-phenyl)-pyrimidin-2-ylamino]-phenol], for which the IC50 turned out to be 44.2 µM in the assay with Saos-2; 22.9 µM in the assay with HT29; 1.6 µM on CDK2/cyclin E; 27.2 ± 15.3 µM in assay [1]; 14.5 µM with A549.

For the compound `COCCOc1ccc(Nc2nccc(-c3cccc(N)c3)n2)cc1` [Compound 3, [4-(3-Amino-phenyl)-pyrimidin-2-yl]-[4-(2-methoxy-ethoxy)-phenyl]-amine], the IC50 in the assay on Saos-2 was 5.2 µM; in the assay with HT29, 3.6 µM; at CDK9/cyclin T1, 0.018 µM; in assay [1], 3.5 ± 1.7 µM; in the assay with A549, 1.8 µM.

As for `Oc1cccc(Nc2nccc(-c3ccc(Cl)c(Cl)c3)n2)c1` [Compound 22, 3-[4-(3,4-Dichloro-phenyl)-pyrimidin-2-ylamino]-phenol], the IC50 in the assay with Saos-2 was 100 µM; in the assay on HT29 it was 85.2 µM; in assay [1], 76.2 ± 29.3 µM; in the assay with A549, 43.5 µM.

As for `CCN(C(C)=O)c1cccc(-c2ccnc(Nc3ccc([N+](=O)[O-])cc3)n2)c1` [Compound 24, N-Ethyl-N-{3-[2-(4-nitro-phenylamino)-pyrimidin-4-yl]-phenyl}-acetamide], the IC50 was 80.4 µM in the assay with Saos-2, 7.8 µM with HT29, 62.7 ± 48.6 µM in assay [1] and 100 µM in the assay on A549.

For the compound `c1ccc(Nc2nccc(-c3ccccc3)n2)cc1` [Compound 37, Phenyl-(4-phenyl-pyrimidin-2-yl)-amine], the IC50 in the assay with Saos-2 is 60.7 µM; in the assay with HT29, 15.2 µM; on CDK2/cyclin E, 18 µM; in assay [1], 32.6 ± 24.5 µM; in the assay with A549, 22 µM.

Regarding `O=[N+]([O-])c1ccc(Nc2nccc(-c3cccc(Cn4cncn4)c3)n2)cc1` [Compound 41, (4-Nitro-phenyl)-[4-(3-[1,2,4]triazol-1-ylmethyl-phenyl)-pyrimidin-2-yl]-amine], the IC50 amounted to 0.92 µM on CDK9/cyclin T1, 0.42 µM on CDK2/cyclin E, 5.5 µM at CDK7/cyclin H and 0.043 µM at GSK3β.

Turning to `COc1ccc(OC)c(-c2ccnc(Nc3cccc([N+](=O)[O-])c3)n2)c1` [Compound 44, [4-(2,5-Dimethoxy-phenyl)-pyrimidin-2-yl]-(3-nitro-phenyl)-amine], the IC50 worked out at 1 µM in the assay with Saos-2; 1.3 µM with HT29; 17 µM at CDK2/cyclin E; 1.3 ± 0.3 µM in assay [1]; 1.5 µM with A549; 0.49 µM on GSK3β.

For the compound `COc1ccc(OC)c(-c2ccnc(Nc3ccc(OC)nc3)n2)c1` [Compound 52, [4-(2,5-Dimethoxy-phenyl)-pyrimidin-2-yl]-(6-methoxy-pyridin-3-yl)-amine], the IC50 worked out at 14.9 µM in the assay with Saos-2; 10.8 µM in the assay on HT29; 16 µM on CDK9/cyclin T1; 15.4 ± 4.9 µM in assay [1]; 20.5 µM in the assay with A549.

Turning to `O=[N+]([O-])c1cccc(Nc2nccc(-c3cccc(O)c3)n2)c1` [Compound 55, 3-[2-(3-Nitro-phenylamino)-pyrimidin-4-yl]-phenol], the IC50 came to 0.03 µM on CDK9/cyclin T1, 0.04 µM on CDK2/cyclin E, 0.31 µM on CDK7/cyclin H and 0.003 µM on GSK3β.

For the compound `Oc1cccc(Nc2nccc(-c3cccc(O)c3)n2)c1` [Compound 56], the IC50 was found to be 0.07 µM on CDK9/cyclin T1, 0.24 µM at CDK2/cyclin E, 2.1 µM at CDK7/cyclin H and 0.07 µM on GSK3β.

With `Oc1cccc(-c2ccnc(Nc3cccc(F)c3)n2)c1` [Compound 57, 3-[2-(3-Fluoro-phenylamino)-pyrimidin-4-yl]-phenol], the IC50 on CDK9/cyclin T1 turned out to be 0.18 µM; at CDK2/cyclin E it was 0.21 µM; at CDK7/cyclin H, 1.3 µM; on GSK3β, 0.054 µM.

For `CC(=O)Nc1cccc(-c2ccnc(Nc3cccc(CO)c3)n2)c1` [Compound 60, N-{3-[2-(3-Hydroxymethyl-phenylamino)-pyrimidin-4-yl]-phenyl}-acetamide], the IC50 at CDK9/cyclin T1 was found to be 0.26 µM; at CDK2/cyclin E, 1.6 µM; on CDK7/cyclin H, 3.8 µM; on GSK3β, 0.51 µM.

In the case of `CC(=O)Nc1cccc(-c2ccnc(Nc3cccc(O)c3)n2)c1` [Compound 67, N-{3-[2-(3-Hydroxy-phenylamino)-pyrimidin-4-yl]-phenyl}-acetamide], the IC50 came to 0.16 µM on CDK9/cyclin T1, 0.78 µM on CDK2/cyclin E, 4.4 µM on CDK7/cyclin H and 0.15 µM on GSK3β.

With `CC(=O)Nc1cccc(-c2ccnc(Nc3cccc([N+](=O)[O-])c3)n2)c1` [Compound 69, N-{3-[2-(3-Nitro-phenylamino)-pyrimidin-4-yl]-phenyl}-acetamide], the IC50 was found to be 0.04 µM at CDK9/cyclin T1, 0.31 µM on CDK2/cyclin E, 0.55 µM on CDK7/cyclin H and 0.14 µM on GSK3β.

In the case of `CC(=O)N(Cc1cccc(-c2ccnc(Nc3cccc([N+](=O)[O-])c3)n2)c1)C(C)C` [Compound 78, N-Isopropyl-N-{3-[2-(3-nitro-phenylamino)-pyrimidin-4-yl]-benzyl}-acetamide], the IC50 with Saos-2 came out at 5.4 µM; in the assay on HT29 it was 0.96 µM; in assay [1], 3.4 ± 2.2 µM; with A549 it was 3.7 µM.

Consider `CN(Cc1cccc(-c2ccnc(Nc3cccc([N+](=O)[O-])c3)n2)c1)S(=O)(=O)c1cccc([N+](=O)[O-])c1` [Compound 85, N-Methyl-3-nitro-N-{3-[2-(3-nitro-phenylamino)-pyrimidin-4-yl]-benzyl}-benzenesulfonamide], for which the IC50 in the assay with Saos-2 was determined as 44.6 µM; in the assay with HT29, 10.4 µM; at CDK9/cyclin T1, 0.4 µM; in assay [1], 44 ± 33.3 µM; in the assay on A549 it was 76.9 µM.

As to `OCC1CCCCN1Cc1cccc(-c2ccnc(Nc3ccc(N4CCOCC4)cc3)n2)c1` (centres unmarked) [Compound 101, (1-{3-[2-(4-Morpholin-4-yl-phenylamino)-pyrimidin-4-yl]-benzyl}-piperidin-2-yl)-methanol], the IC50 with Saos-2 was found to be 25 µM; with HT29, 6 µM; at CDK9/cyclin T1, 2.9 µM; in assay [1] it was 16.1 ± 9.6 µM; in the assay on A549, 17.3 µM; at CDK7/cyclin H it was 1.6 µM.

Consider `COc1ccc(Nc2nccc(-c3cccc(CN4CCCCC4CO)c3)n2)cn1` (centres unmarked) [Compound 102, (1-{3-[2-(6-Methoxy-pyridin-3-ylamino)-pyrimidin-4-yl]-benzyl}-piperidin-2-yl)-methanol], for which the IC50 in the assay with Saos-2 was found to be 23.4 µM; with HT29, 11.1 µM; on CDK9/cyclin T1 it was 0.49 µM; in assay [1] it was 17.2 ± 6.2 µM; with A549, 17 µM; on CDK7/cyclin H, 1.4 µM.

For `OCC1CCCCN1Cc1cccc(-c2ccnc(Nc3cccc(O)c3)n2)c1` (centres unmarked) [Compound 103, 3-{4-[3-(2-Hydroxymethyl-piperidin-1-ylmethyl)-phenyl]-pyrimidin-2-ylamino}-phenol], the IC50 was determined as 5.6 µM in the assay with Saos-2; 7 µM with HT29; 0.14 µM at CDK9/cyclin T1; 6.5 ± 0.8 µM in assay [1]; 6.9 µM in the assay on A549; 0.64 µM at CDK7/cyclin H.
